Patent US11992011B2, “Compounds for controlling plant pathogens” (VIB VZW, priority 2017, dated 2024)

Tests used:
[1] = test system: C4H enzyme; assay: Yeast heterologous expression assay of C4H inhibition (Example 15); assay type: biochemical
Description: Further structural analogs of the C4H inhibitor 4-iodobenzoic acid (IBA) were tested for their ability to inhibit the C4H enzyme in a yeast heterologous expression assay.

[2] = test system: Arabidopsis thaliana (ecotype Col-0) seedlings; assay: In vitro Arabidopsis thaliana seedling growth assay (Example 15); assay type: in vivo; details: for Agravitropy ratio / Primary root length / Rosette area: 14 days old seedlings; for Agravitropy ratio / Primary root length / Rosette area / Germination rate: mean ± SD
[3] = test system: Meloidogyne incognita; assay: M. incognita infection in DIECA-treated tomato (Example 18); assay type: in vivo; details: DIECA alone
Description: Infection experiments with M. incognita were performed in the same manner as those with M. graminicola, except that plants were harvested 31 days after inoculation instead of 14 days. At this point, the plants were phenotyped by measuring the root length with a ruler and in some experiments by measuring leaf area using the EasyLeafArea software (Easlon and Bloom, 2014) and by determining shoot dry mass after 72 hours of drying in an oven at 70° C. Galls were stained and counted as described above.
To determine whether C4H inhibitors depend on this hormonal pathway, it was tested whether tomato plants treated with the chemical inhibitor of jasmonic acid biosynthesis diethyldithiocarbamate (DIECA) (Farmer et al., 1994) still responded to PA treatment.

[4] = test system: Meloidogyne graminicola; assay: Meloidogyne graminicola infection in rice cv. Kitaake, additional C4H inhibitors (Example 6); assay type: in vivo; details: foliar spray, N=8
Description: (§1) Unless otherwise mentioned, all chemicals for nematode experiments were applied as a foliar spray consisting of the target compound at a concentration of 300 μM together with 0.1% (v/v) Tween 20 surfactant (Calbiochem) in distilled water. Again unless otherwise mentioned, all treatments for the nematode experiments were carried out three times: one and eight days before pathogen inoculation and seven days after pathogen inoculation. In all cases, plants were sprayed until run-off with an atomizer.
(§2) Infection experiments with M. graminicola were performed by inoculating host plants 14 days after transfer to SAP by introducing the desired amount of J2 juveniles next to the root system using a micro pipette. Rice plants (cv. Nipponbare or Kitaake) were inoculated with 250 J2 juveniles per plant; wheat plants (cv. Sahara) were inoculated with 600 J2 juveniles per plant. Plants were harvested 14 days after inoculation. At this point, the plants were phenotyped by measuring the shoot and root length with a ruler, counting the number of adventitious roots and in some experiments by measuring leaf area using the EasyLeafArea software (Easlon and Bloom, 2014) and by determining shoot dry mass after 72 hours of drying in an oven at 70° C. Root systems were then stained in acid fuchsine as described in (Byrd et al., 1983) and left to destain in glycerol with 1 ml/l fuming HCl added for approximately ten days. The number of galls and nematodes was then counted using a binocular microscope.
Four different C4H inhibitors were used: piperonylic acid (PA), piperine (PIP), 4-propynyloxybenzoic acid (4PB) and 3-(4-pyridyl)acrylic acid (3PA).

[5] = test system: J2 juveniles of Meloidogyne graminicola; assay: In vitro nematode toxicity assay, M. graminicola J2 (Example 11); details: second experiment, C4H inhibitor 100 μM, Vertimec 0.02 v/v % abamectin, water control 93%
Description: J2 juveniles of Meloidogyne graminicola and Heterodera schachtii were isolated from Echinocloa cruss-galli roots and sugar beet roots respectively. Per treatment and species combination, 300 nematodes were isolated and divided over six wells that contained 1.5 ml of either sterilized tap water, a 100 μM C4H inhibitor solution or a 0.02 v/v % solution of the nematicide abamectin (Vertimec®, Syngenta AG). The nematodes were incubated in the dark on a slow-moving rotary shaker (50 rpm) and the number of living nematodes was counted regularly using a binocular microscope.
To rule out definitively that the compounds of the invention operate through direct toxicity to nematodes, an in vitro toxicity assay on J2 juveniles of the nematodes Meloidogyne graminicola and Heterodera schachtii was performed.
First, survival upon exposure to the C4H inhibitor piperonylic acid (PA) was compared to a negative control (tap water) and a positive control, the commercial nematicide Vertimec (0.02% Abamectin). A detailed survival curve is shown in FIG. 12a (M. graminicola) and FIG. 12b (H. schachtii).
In a second experiment, a broader range of C4H inhibitors were assayed in the same manner. The toxicity of piperonylic acid (PA), piperine (PIP), 4-propynyloxybenzoic acid (4PB), and 3-(4-pyridyl)acrylic acid (3PA) to J2 juveniles of Meloidogyne graminicola was compared to a negative control (tap water) and a true nematicide (Vertimec, active ingredient abamectin).

[6] = test system: tomato; assay: Phytotoxicity of foliar spray in uninfected tomato (Example 1); assay type: in vivo, Solanum lycopersicum; details: 500 μM foliar spray, 8 plants per treatment; for Leaf Area / Root length: mean ± standard deviation; for BBCH stage: median ± interquartile range
Description: Tomato seeds, cv. Moneymaker (Vreeken's Zaden, Dordrecht, the Netherlands) were sown on autoclaved potting soil coveed with polyethylene film and placed at 24° C. for eight days. Seedlings were then transferred to individual SAP-filled pots and placed in a growth chamber at 24° C. Plants were watered three times per week with 25 ml of quarter-strength Hoagland solution for the first two weeks and half-strength thereafter.
as §1
(§3) Short-term phytotoxicity experiments (Example 1) were analyzed using non-parametric methods. For each variable, overall significance was determined using the Kruskal-Wallis test (Kruskal and Wallis, 1952), followed by a posthoc Conover-Iman test (Conover and Iman, 1981) with Hommel multiplicity correction (Hommel, 1988) if the Kruskal-Wallis test was significant. When only two groups were present, the Wilcoxon-Mann-Whitney test was used (Mann and Whitney, 1947).
(§4) To test whether C4H inhibitors induce phytotoxic effects in crops, uninfected tomato, wheat and carrot were treated with piperonylic acid (PA), 4-iodobenzoic acid (4-IBA) and piperic acid (PIA) at a concentration of 500 μM through foliar application. At harvest, leaf area (or shoot length in the case of wheat) and primary root length were recorded. The BBCH developmental stage (Lancashire et al., 1991), a measure of developmental retardation, was used to test for effects on development. Finally, the presence of visible signs of phytotoxicity such as chlorosis, discoloration or necrosis was recorded.

[7] = test system: carrot; assay: Phytotoxicity of foliar spray in uninfected carrot (Example 1); assay type: in vivo, Daucus carota; details: 500 μM foliar spray, 8 plants per treatment; for Leaf Area: mean ± standard deviation; for BBCH stage: median ± interquartile range
Description: Carrot seeds, cv. Nantes 2 (Vreeken's Zaden, Dordrecht, the Netherlands) were germinated on wet paper for seven days at 21° C. After germination, seedlings were transferred to individual pots filled with potting soil and placed in a growth chamber at 21° C.
as §1, §3, §4

[8] = test system: wheat; assay: Phytotoxicity of foliar spray in uninfected wheat (Example 1); assay type: in vivo, Triticum aestivum; details: 500 μM foliar spray, 8 plants per treatment; for Root length / Shoot length: mean ± standard deviation; for BBCH stage: median ± interquartile range
Description: (§5) For Examples 1, 5 and 10, seeds of the winter wheat cultivar Sahara (Aveve Agrarisch, Landen, Belgium) were used. Seeds were washed in a 10% ethanol solution to remove any residual traces of fungicide and then germinated on wet paper at room temperature for four days; seeds were transferred to SAP tubes and placed in a growth chamber (25° C., 16 hours per day of light). Plants were watered with 8 ml of half-strength Hoagland solution every two days for the first ten days and with 8 ml of full strength Hoagland solution every two days afterwards.
as §1, §3, §4

[9] = test system: Meloidogyne graminicola; assay: Meloidogyne graminicola infection in wheat cv. Sahara (Example 5); assay type: in vivo; details: infected wheat, foliar spray
Description: as §5, §1, §2
In this experiment, the compounds PA, MDCA and 4-IBA were tested as foliar spray in the monocot staple crop wheat (Triticum aestivum, cv. Sahara) against the nematode Meloidogyne graminicola. The bacterial compound LPS (lipopolysaccharide), which is a potent inducer of the plant immune system and a known priming agent (Desaki et al., 2006), was also included as a positive control.

[10] = test system: spring wheat (Triticum aestivum cv. Fielder); assay: Yield and fertility in pathogen-free spring wheat (Example 2); details: 300 μM foliar spray three times; vs. control
Description: For Example 2, the spring wheat cultivar Fielder was used. Seeds were obtained from plants grown in the greenhouse complex of the VIB (Zwijnaarde, Belgium). Seeds were sown directly in potting soil (four seeds to a pot, thinned to three plants per pot after emergence) and placed in a growth chamber at 21° C. with 16 hours per day of light. These plants were grown until harvest; they were sprayed three times with the compounds of the invention at a concentration of 300 μM using the protocol described in the chemicals section. Spraying took place 14 and 21 days after emergence and a final time at heading.
In all cases model assumptions were verified using diagnostic plots (residuals, QQ-plot, scale-location and residuals-leverage). Outliers were removed only if they were outliers both in the statistical sense and if there was a biological reason for removal (e.g. the plant was stunted or developed a secondary infection).
To determine the effects of C4H inhibition on yield and fertility, spring wheat (Triticum aestivum cv. Fielder) was grown in a pathogen-free growth chamber until maturity and treated with a control or C4H inhibitor-containing foliar spray at regular intervals. At harvest, the number of ears per plant, the seed mass, the size of the seeds and the germination ability of the freshly harvested seeds were measured. Seed size was measured using the stacking density of the seed as a proxy measure; if a given seed mass takes up a greater volume, then the individual seeds must be larger.

With `O=C(O)c1ccc(C(F)(F)F)cc1` [CF3-BA, 4-trifluoromethylbenzoic acid] the C4H inhibitor activity [1] was “significant C4H inhibitor activity”, the Agravitropy ratio ([2]; 50 μM) was 0.79 ± 0.15 and the Primary root length ([2]; 50 μM) was 0.42 ± 0.14 cm. For the same compound, the Rosette area ([2]; 50 μM) was 0.16 ± 0.06 cm^2, the Germination rate ([2]; 50 μM) was 0.95 ± 0.22 and the Agravitropy ratio ([2]; 100 μM) was 0.81 ± 0.10. For the same compound, the Primary root length ([2]; 100 μM) was 0.41 ± 0.14 cm, the Rosette area ([2]; 100 μM) was 0.15 ± 0.09 cm^2 and the Germination rate ([2]; 100 μM) was 0.84 ± 0.37. For the same compound, the “seedling phenotype compared with IBA” value ([2]; seedlings grown on amended medium) was “identical phenotype to those grown on medium containing IBA”.
In the case of `CCN(CC)C(=S)S` [DIECA, diethyldithiocarbamate, reference compound], the “change of number of galls, DIECA-treated tomato plants vs wild type” value [3] is reported as “+26%”.
`O=C(O)/C=C/c1ccncc1` [Formula 3PA, 3-(4-pyridyl)-acrylic acid] was tested, and the “reduction in the number of galls compared to the control group” value (from here on “reduction in the number of galls”) [4] was −47% and the “survival at the end of the experiment” value [5] was 93%.
For `O=C(O)c1ccc(I)cc1` [Formula 4-IBA, 4-iodobenzoic acid], the “Leaf Area” value [6] was 8.92 ± 1.91 cm^2, the Root length [6] was 7.40 ± 0.79 cm and the BBCH stage [6] was 102.5 ± 1.0. For the same compound, the “Leaf Area” value [7] was 5.05 ± 1.35 cm^2, the BBCH stage [7] was 13 ± 0 and the Root length [8] was 14.36 ± 2.78 cm. For the same compound, the Shoot length [8] was 31.93 ± 3.38 cm, the BBCH stage [8] was 13 ± 0 and the “Number of galls per AR” value ([9]; n = 9) was 2.7 ± 0.8. For the same compound, the Number of galls ([9]; per root system, n = 9) was 27.8 ± 7.5, the “reduction in gall numbers” value ([9]; vs control) was −27% and the “survival at the end of the experiment” value [5] was 89%. It also gave an Agravitropy ratio ([2]; 50 μM) of 0.78 ± 0.17, a Primary root length ([2]; 50 μM) of 0.43 ± 0.15 cm and a Rosette area ([2]; 50 μM) of 0.10 ± 0.06 cm^2. For the same compound, the Germination rate ([2]; 50 μM) was 0.88 ± 0.34, the Agravitropy ratio ([2]; 100 μM) was 0.82 ± 0.11 and the Primary root length ([2]; 100 μM) was 0.28 ± 0.07 cm. For the same compound, the Rosette area ([2]; 100 μM) was 0.05 ± 0.01 cm^2 and the Germination rate ([2]; 100 μM) was 0.84 ± 0.37.
`C#CCOc1ccc(C(=O)O)cc1` [Formula 4PB, 4-propynyloxybenzoic acid] was tested, and the “reduction in the number of galls” value [4] was −44%, the “survival at the end of the experiment” value [5] was 91% and the C4H inhibitor activity [1] was “significant C4H inhibitor activity”.
With `O=C(O)/C=C/C=C/c1ccc2c(c1)OCO2` [PIA, Piperic acid] the “Leaf Area” value [6] was 12.21 ± 1.66 cm^2, the Root length [6] was 8.24 ± 1.90 cm and the BBCH stage [6] was 103 ± 1.0. The “Leaf Area” value [7] was 4.78 ± 0.85 cm^2, the BBCH stage [7] was 13 ± 0 and the Root length [8] was 14.57 ± 1.24 cm. The Shoot length [8] was 31.07 ± 4.82 cm and the BBCH stage [8] was 13 ± 0.
`O=C(/C=C/C=C/c1ccc2c(c1)OCO2)N1CCCCC1` [piperine, Piperine] was tested, and the “reduction in the number of galls” value [4] was −33%, the “survival at the end of the experiment” value [5] was 91% and the “Total yield (seed mass)” value [10] was “small but statistically significant increase”. The “germination after fourteen days of freshly harvested seeds” value [10] was “not significantly different”, the “mean number of ears per plant” value [10] was “the same in all treatments” and the “seed size (stacking density)” value [10] was “no effect”.
